One data set deals with H. influenzae 35056. The data set can be described thus: MIC against Haemophilus strains. The format is cell-based. The conditions noted are these: s. No. 1, H. influenzae 35056.
Another data set has as its system H. influenzae 451. The data set can be described thus: MIC against Haemophilus strains. The format is cell-based. The settings on record: s. No. 8, H. influenzae 451.
For another data set, the system named is H. influenzae 49766. The data set can be described thus: MIC against Haemophilus strains. The format is cell-based. The settings on record: s. No. 6, H. influenzae 49766.
For the next data set, the system named is H. influenzae 23. The data set can be described thus: MIC against Haemophilus strains. The data set is classed as cell-based. The conditions noted are these: s. No. 5, H. influenzae 23.
Another data set has as its system H. influenzae 1381. Put plainly: MIC against Haemophilus strains. The format is cell-based. The settings on record: s. No. 7, H. influenzae 1381.
In the next data set the test system is H. influenzae 474. The data set can be described thus: MIC against Haemophilus strains. The data set is classed as cell-based. The conditions noted are these: s. No. 11, H. influenzae 474.
Another data set has as its system H. influenzae ATCC 49247. The data set can be described thus: MIC against Haemophilus strains. The format is cell-based. The conditions noted are these: s. No. 2, H. influenzae ATCC 49247.
For another data set, the system named is H. influenzae R. The data set can be described thus: MIC against Haemophilus strains. The format is cell-based. The settings on record: s. No. 4, H. influenzae R.
For a further data set, the system named is H. influenzae 1745. Put plainly: MIC against Haemophilus strains. The format is cell-based. The conditions noted are these: s. No. 9, H. influenzae 1745.
In a further data set the test system is H. influenzae βIac. Put plainly: MIC against Haemophilus strains. The settings on record: s. No. 3, H. influenzae βIac. The data set is classed as cell-based.
The next data set deals with H. influenzae P318. Put plainly: MIC against Haemophilus strains. The data set is classed as cell-based. The conditions noted are these: s. No. 10, H. influenzae P318.
Setting [1] is: Haemophilus influenzae, read-out: MIC.

The values below come from patent US20060293307A1, “Oxazolidinone derivatives as antimicrobials” (priority 2002, published 2006).

≈ marks a conversion by molar mass, not a printed value. Like-named read-outs stand apart in the source and are kept apart here.

Broadly, the melting point is the temperature of the solid-liquid transition. Compound `O=C(CF)NC[C@H]1CN(c2ccc(N3CCN(c4ccc([N+](=O)[O-])s4)CC3)c(F)c2)C(=O)O1` registered a melting point of 145 to 150 °C.
In the case of `CO/N=C(\C(=O)N[C@@H]1C(=O)N2C(C(=O)O)=C(CSc3nc(=O)c(O)nn3C)CS[C@H]12)c1csc(N)n1` [Ceftriaxone, reference compound], the MIC was determined as 0.06 µg/mL (≈ 0.108 µM) against H. influenzae 35056; 0.008 µg/mL (≈ 0.0144 µM) in the data set on H. influenzae 451; 0.008 µg/mL (≈ 0.0144 µM) against H. influenzae 49766; 0.004 µg/mL (≈ 0.00721 µM) in the data set with H. influenzae 23; 0.008 µg/mL (≈ 0.0144 µM) against H. influenzae 1381; 0.004 µg/mL (≈ 0.00721 µM) against H. influenzae 474. For the same compound, the MIC with H. influenzae ATCC 49247 is 0.125 µg/mL (≈ 0.225 µM); against H. influenzae R, 0.004 µg/mL (≈ 0.00721 µM); in the data set on H. influenzae 1745, 0.004 µg/mL (≈ 0.00721 µM); against H. influenzae βIac it was <0.002 µg/mL; against H. influenzae P318, 0.015 µg/mL (≈ 0.027 µM).
Take `C[C@H]1COc2c(N3CCN(C)CC3)c(F)cc3c(=O)c(C(=O)O)cn1c23` [LevoFloxaci, reference compound]: the MIC was 0.015 µg/mL (≈ 0.0415 µM) against H. influenzae 35056; 0.015 µg/mL (≈ 0.0415 µM) in the data set on H. influenzae 451; 0.03 µg/mL (≈ 0.083 µM) in the data set on H. influenzae 49766; 0.015 µg/mL (≈ 0.0415 µM) in the data set with H. influenzae 23; 0.015 µg/mL (≈ 0.0415 µM) in the data set on H. influenzae 1381; 0.015 µg/mL (≈ 0.0415 µM) against H. influenzae 474. For the same compound, the MIC is 0.015 µg/mL (≈ 0.0415 µM) against H. influenzae ATCC 49247; 0.015 µg/mL (≈ 0.0415 µM) in the data set on H. influenzae R; 0.03 µg/mL (≈ 0.083 µM) against H. influenzae 1745; 0.008 µg/mL (≈ 0.0221 µM) in the data set on H. influenzae βIac; 0.03 µg/mL (≈ 0.083 µM) in the data set on H. influenzae P318.
As for `CC[C@H]1OC(=O)[C@H](C)C(=O)[C@H](C)[C@@H](O[C@@H]2O[C@H](C)C[C@H](N(C)C)[C@H]2O)[C@](C)(OC)C[C@@H](C)C(=O)[C@H](C)[C@H]2N(CCCCn3cnc(-c4cccnc4)c3)C(=O)O[C@]12C` [Telithromycin, reference compound], the MIC in the data set on H. influenzae 35056 (setting [1]), with H. influenzae 451 (setting [1]), with H. influenzae 49766 (setting [1]), in the data set with H. influenzae 23 (setting [1]), in the data set with H. influenzae 1381 (setting [1]) and in the data set with H. influenzae 474 (setting [1]) was 2 µg/mL (≈ 2.46 µM) each time. For the same compound, the MIC in the data set on H. influenzae ATCC 49247 (Haemophilus influenzae, ATCC49247, read-out: MIC) worked out at 2 µg/mL (≈ 2.46 µM); in the data set with H. influenzae R (setting [1]), 2 µg/mL (≈ 2.46 µM); with H. influenzae 1745 (setting [1]), 1 µg/mL (≈ 1.23 µM); in the data set on H. influenzae βIac (setting [1]) it was 2 µg/mL (≈ 2.46 µM); in the data set on H. influenzae P318 (setting [1]), 1 µg/mL (≈ 1.23 µM).
